System: B. cepacia biofilm
Type: cell-based, Burkholderia cepacia

`O=[O+][O-]` [ozone, Ozone] was tested, and the “biocide efficacy (rank order, from cell number/3000 μm^2 and total cell area vs elapsed time)” value was “greatest”.

— patent US6498862B1 (priority 1999, dated 2002)
